{
  "source": "patent US11952378B1",
  "about": "“Pyrrolo[2,3-c]isoquinoline-1,2-dione compounds as CK2 inhibitors” (KING FAISAL UNIVERSITY, priority 2023, dated 2024)",
  "key": {"H1299 (lung)": {"system": "H1299 (lung)", "experiment": "In vitro cytotoxic activity assay (MTT), H1299", "type": "cell-based", "settings": "Homo sapiens, NCI-H1299; H1299 (lung) cells, exposed for 96 hours; read-out: IC50, concentration eliciting 50% inhibition of cell proliferation", "method": "(§1) Compounds 1-16 were screened for their in vitro cytotoxic behavior using a 3-(4,5-dimethyl-thiazol-2-yl)-2,5-diphenyltetrazolium bromide (MTT) assay against selected cancer human cell lines consisting of PC3 (prostate), HCT116 (colon), A375 (melanoma), H1299 (lung), MIAPaCa-2 (pancreas), HL60 (leukemia), MCF7 (breast), MDA-MB-231 (breast) (T. Mosmann, J. Immunol. Meth., 1983, 65, 55-63). The cells were cultured at 37° C. in RMPI1640 medium supplemented with 10% fetal bovine serum, 50 IU/mL penicillin, and 50 μg/mL streptomycin in a 5% CO2 incubator. All cells were sub-cultured 3 times/week by trypsinisation. Viable cells were seeded and allowed to adhere for 12 h before a test drug was added in 96-well plates at an initial density of 1.0×10^5 cells/mL. Tumor cell lines were separately exposed to various concentrations of the tested compounds followed by incubation at a temperature of 37° C. during 96 h inside a medium of fresh RMPI 1640. Cells were subsequently incubated at 37° C. using MTT at 0.5 mg/mL during 4 hours. After removal of supernatant, formazan crystals were dissolved in isopropanol and the optical density was measured at 570 nm. CX-4945 was used as a positive control."}, "HCT116 (colon)": {"system": "HCT116 (colon)", "experiment": "In vitro cytotoxic activity assay (MTT), HCT116", "type": "cell-based", "settings": "Homo sapiens, HCT-116; HCT116 (colon) cells, exposed for 96 hours; read-out: IC50, concentration eliciting 50% inhibition of cell proliferation", "method": "as §1"}, "MDA-MB-231 (breast)": {"system": "MDA-MB-231 (breast)", "experiment": "In vitro cytotoxic activity assay (MTT), MDA-MB-231", "type": "cell-based", "settings": "Homo sapiens; MDA-MB-231 (breast) cells, exposed for 96 hours; read-out: IC50, concentration eliciting 50% inhibition of cell proliferation", "method": "as §1"}, "A375 (melanoma)": {"system": "A375 (melanoma)", "experiment": "In vitro cytotoxic activity assay (MTT), A375", "type": "cell-based", "settings": "Homo sapiens, A-375; A375 (melanoma) cells, exposed for 96 hours; read-out: IC50, concentration eliciting 50% inhibition of cell proliferation", "method": "as §1"}, "MIAPaCa-2 (pancreas)": {"system": "MIAPaCa-2 (pancreas)", "experiment": "In vitro cytotoxic activity assay (MTT), MIAPaCa-2", "type": "cell-based", "settings": "Homo sapiens, MIA PaCa-2; MIAPaCa-2 (pancreas) cells, exposed for 96 hours; read-out: IC50, concentration eliciting 50% inhibition of cell proliferation", "method": "as §1"}, "HL60 (leukemia)": {"system": "HL60 (leukemia)", "experiment": "In vitro cytotoxic activity assay (MTT), HL60", "type": "cell-based", "settings": "Homo sapiens, HL-60; HL60 (leukemia) cells, exposed for 96 hours; read-out: IC50, concentration eliciting 50% inhibition of cell proliferation", "method": "as §1"}, "PC3 (prostate)": {"system": "PC3 (prostate)", "experiment": "In vitro cytotoxic activity assay (MTT), PC3", "type": "cell-based", "settings": "Homo sapiens, Prostate cell; PC3 (prostate) cells, exposed for 96 hours; read-out: IC50, concentration eliciting 50% inhibition of cell proliferation", "method": "as §1"}, "MCF7 (breast)": {"system": "MCF7 (breast)", "experiment": "In vitro cytotoxic activity assay (MTT), MCF7", "type": "cell-based", "settings": "Homo sapiens; MCF7 (breast) cells, exposed for 96 hours; read-out: IC50, concentration eliciting 50% inhibition of cell proliferation", "method": "as §1"}, "[1]": {"target": "T1, recombinant human CK2 (RRββ-holoenzyme) (Homo sapiens, UniProt P68400)", "T1 construct": "purchased Millipore", "T1 sequence (P68400 whole entry)": "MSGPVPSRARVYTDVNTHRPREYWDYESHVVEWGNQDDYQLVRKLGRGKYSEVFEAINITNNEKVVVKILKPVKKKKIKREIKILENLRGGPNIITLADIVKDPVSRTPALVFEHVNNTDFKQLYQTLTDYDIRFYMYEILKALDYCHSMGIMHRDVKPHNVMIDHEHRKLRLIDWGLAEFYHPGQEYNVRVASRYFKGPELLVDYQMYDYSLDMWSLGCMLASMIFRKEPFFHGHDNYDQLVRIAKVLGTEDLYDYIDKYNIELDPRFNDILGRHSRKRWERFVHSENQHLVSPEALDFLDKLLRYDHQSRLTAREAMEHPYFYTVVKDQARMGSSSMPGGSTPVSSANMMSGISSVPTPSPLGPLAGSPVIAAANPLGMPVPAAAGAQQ", "T1 sequence (P67870 whole entry partner)": "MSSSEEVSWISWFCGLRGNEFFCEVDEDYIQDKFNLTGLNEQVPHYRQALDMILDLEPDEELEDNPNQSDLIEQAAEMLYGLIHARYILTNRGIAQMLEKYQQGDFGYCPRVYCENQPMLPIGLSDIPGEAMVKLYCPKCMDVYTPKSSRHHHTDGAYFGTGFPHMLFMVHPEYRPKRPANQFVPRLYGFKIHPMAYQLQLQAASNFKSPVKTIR", "experiment": "CK2 Kinase Assay ([γ-33P]ATP, substrate peptide RRRDDDSDDD)", "type": "biochemical", "settings": "final ATP concentration 15 μM, 10 minutes at 30° C.; read-out: protein kinase CK2 IC50", "method": "CK2 Kinase Assay was conducted using the previously described protocol (Pierre F. et al; J. Med. Chem. 2011, 54, 635-654). The tested compounds in aqueous solution were added at a volume of 10 μL to a reaction mixture comprising 10 μL of assay dilution buffer (ADB; 20 mM MOPS, pH 7.2, 25 mM β-glycerol phosphate, 5 mM EGTA, 1 mM sodium orthovanadate, and 1 mM dithiothreitol), 10 μL of substrate peptide (RRRDDDSDDD, dissolved in ADB at a concentration of 1 mM), 10 μL of recombinant human CK2 (RRββ-holoenzyme, 25 ng dissolved in ADB; Millipore). Reactions were initiated by the addition of 10 μL of ATP solution (90% 75 mMMgCl2, 75 μM ATP (final ATP concentration: 15 μM) dissolved in ADB; 10% [γ-33P] ATP (stock 1 mCi/100 μL; 3000 Ci/mmol (Perkin-Elmer) and maintained for 10 minutes at 30° C. The reactions were quenched with 100 μL of 0.75% phosphoric acid and then transferred to and filtered through a phosphor cellulose filter plate (Millipore). After washing each well five times with 0.75% phosphoric acid, the plate was dried under vacuum for 5 min and, following the addition of 15 μL of scintillation fluid to each well, the residual radioactivity was measured using a Wallac luminescence counter. The IC50 values were derived from eight concentrations of test inhibitors."}},
  "data": [
    {"molecule": "O=C1Nc2nc(Nc3cccc(Cl)c3)c3cc(C(=O)O)ccc3c2C1=O", "note": "[Compound 1, 5-((3-chlorophenyl)amino)-1,2-dioxo-2,3-dihydro-1H-pyrrolo[2,3-c]isoquinoline-7-carboxylic Acid]", "values": [
      {"measurement": "IC50", "setting": "H1299 (lung)", "value": 1.9, "unit": "µM"},
      {"measurement": "IC50", "setting": "HCT116 (colon)", "value": 1.3, "unit": "µM"},
      {"measurement": "IC50", "setting": "MDA-MB-231 (breast)", "value": 4.1, "unit": "µM"},
      {"measurement": "IC50", "setting": "A375 (melanoma)", "value": 2.7, "unit": "µM"},
      {"measurement": "IC50", "setting": "MIAPaCa-2 (pancreas)", "value": 1.3, "unit": "µM"},
      {"measurement": "IC50", "setting": "HL60 (leukemia)", "value": 3.4, "unit": "µM"},
      {"measurement": "IC50", "setting": "PC3 (prostate)", "value": 1.2, "unit": "µM"},
      {"measurement": "IC50", "setting": "MCF7 (breast)", "value": 5.5, "unit": "µM"},
      {"measurement": "IC50", "setting": "[1]", "value": 0.055, "unit": "µM"}
    ]}
  ]
}
